# US9902794B2, “Curable composition, optical component and compound” (FUJIFILM Corporation, priority 2014, dated 2018)
# Assay: Solvent solubility evaluation of aromatic ring-containing compound in PGMEA
# Format: physicochemical
# Details: 1 g compound and 1 mL PGMEA stirred for 24 hours at 25° C.
# Description: <Solvent Solubility Evaluation>
# 1 g of an aromatic ring-containing compound and 1 mL of propylene glycol monomethyl ether acetate (PGMEA) were stirred for 24 hours at 25° C. and then the aromatic ring-containing compound was mixed with PGMEA uniformly and evaluated by the following criteria.
# A: 50% by mass or more of an aromatic ring-containing compound were dissolved in PGMEA.
# B: 30% by mass or more and less than 50% by mass of an aromatic ring-containing compound were dissolved in PGMEA.
# C: 5% by mass or more and less than 30% by mass of an aromatic ring-containing compound were dissolved in PGMEA.
# D: The amount of an aromatic ring-containing compound dissolved in PGMEA was less than 5% by mass.
# The solvent solubility of an aromatic ring-containing compound was measured in the same manner as described above.
row,SMILES,Solvent solubility evaluation
1,"C=CC(=O)OCCOc1ccc(C2(c3ccc(OCCOC(=O)C=C)cc3)c3ccccc3-c3ccccc32)cc1 [Comparative Compound 1, reference compound]",C (5% by mass or more and less than 30% by mass of an aromatic ring-containing compound were dissolved in PGMEA)
2,C=CC(=O)OCCOc1ccc2c(c1)-c1cc3ccccc3cc1C2(c1ccc(-c2nc3ccccc3s2)cc1)c1ccc2cc(OCCOC(=O)C=C)ccc2c1 (stereo not drawn) [Compound 1],A (50% by mass or more of an aromatic ring-containing compound were dissolved in PGMEA)
3,C=CC(=O)OCCOc1ccc2c(c1)-c1cc3ccccc3cc1C2(c1ccc(-c2nc3ccccc3s2)cc1)c1ccc(OCCOC(=O)C=C)c2ccccc12 (stereo not drawn) [Compound 2],A (50% by mass or more of an aromatic ring-containing compound were dissolved in PGMEA)
4,C=CC(=O)OCCOc1ccc2nc(-c3ccc(C4(c5ccc(-c6nc7ccc(OCCOC(=O)C=C)cc7s6)cc5)c5ccccc5-c5ccccc54)cc3)sc2c1 [Compound 3],A (50% by mass or more of an aromatic ring-containing compound were dissolved in PGMEA)
5,C=CC(=O)OCCOc1ccc(-c2ccc3nc(C4(c5nc6ccc(-c7ccc(OCCOC(=O)C=C)cc7)cc6s5)c5ccccc5-c5cc6ccccc6cc54)sc3c2)cc1 [Compound 4],A (50% by mass or more of an aromatic ring-containing compound were dissolved in PGMEA)
6,C=CC(=O)OCCOc1ccc2cc(-c3ccc4nc(C5(c6nc7ccc(-c8ccc9cc(OCCOC(=O)C=C)ccc9c8)cc7s6)c6ccccc6-c6cc7ccccc7cc65)sc4c3)ccc2c1 [Compound 5],A (50% by mass or more of an aromatic ring-containing compound were dissolved in PGMEA)
7,C=CC(=O)OCCOc1ccc2nc(-c3ccc(C4(c5ccc(-c6nc7ccc(OCCOC(=O)C=C)cc7s6)cc5)c5ccccc5-c5cc6ccccc6cc54)cc3)sc2c1 [Compound 6],A (50% by mass or more of an aromatic ring-containing compound were dissolved in PGMEA)
8,C=CC(=O)OCCOc1ccc(-c2nc3ccc(C4(c5ccc6nc(-c7ccc(OCCOC(=O)C=C)cc7)sc6c5)c5ccccc5-c5ccccc54)cc3s2)cc1 [Compound 7],A (50% by mass or more of an aromatic ring-containing compound were dissolved in PGMEA)
9,C=CC(=O)OCCOc1ccc2cc(-c3nc4ccc(C5(c6ccc7nc(-c8ccc9cc(OCCOC(=O)C=C)ccc9c8)sc7c6)c6ccccc6-c6ccccc65)cc4s3)ccc2c1 [Compound 8],A (50% by mass or more of an aromatic ring-containing compound were dissolved in PGMEA)
10,C=CC(=O)OCCOc1ccc(-c2nc3ccc(C4(c5ccc6nc(-c7ccc(OCCOC(=O)C=C)cc7)sc6c5)c5ccccc5-c5cc6ccccc6cc54)cc3s2)cc1 [Compound 9],A (50% by mass or more of an aromatic ring-containing compound were dissolved in PGMEA)
11,C=CC(=O)OCCOc1ccc2cc(-c3nc4ccc(C5(c6ccc7nc(-c8ccc9cc(OCCOC(=O)C=C)ccc9c8)sc7c6)c6ccccc6-c6cc7ccccc7cc65)cc4s3)ccc2c1 [Compound 10],A (50% by mass or more of an aromatic ring-containing compound were dissolved in PGMEA)
12,C=CC(=O)OCCOc1ccc(-c2nc3cc(C(c4ccccc4)(c4ccccc4)c4ccc5sc(-c6ccc(OCCOC(=O)C=C)cc6)nc5c4)ccc3s2)cc1 [Compound A],B (30% by mass or more and less than 50% by mass of an aromatic ring-containing compound were dissolved in PGMEA)
13,C=CC(=O)OCCOc1ccc2c(c1)-c1cc(OCCOC(=O)C=C)ccc1C2(c1ccc2nc(-c3ccccc3)sc2c1)c1ccc2nc(-c3ccccc3)sc2c1 [Compound B],B (30% by mass or more and less than 50% by mass of an aromatic ring-containing compound were dissolved in PGMEA)
14,C=CC(=O)OCCOc1ccc(-c2ccc(C3(c4ccc(OCCOC(=O)C=C)cc4)c4ccccc4-c4cc5sc(-c6ccccc6)nc5cc43)cc2)cc1 (stereo not drawn) [Compound C],B (30% by mass or more and less than 50% by mass of an aromatic ring-containing compound were dissolved in PGMEA)
15,C=CC(=O)OCCOc1ccc2c(c1)C(c1ccc(-c3nc4ccccc4o3)cc1)(c1ccc3cc(OCCOC(=O)C=C)ccc3c1)c1cc3ccccc3cc1-2 (stereo not drawn) [Compound D],B (30% by mass or more and less than 50% by mass of an aromatic ring-containing compound were dissolved in PGMEA)
16,C=CC(=O)OCCOc1ccc2cc(C3(c4ccc(OCCOC(=O)C=C)c(-c5nc6ccccc6s5)c4)c4ccccc4-c4cc5ccccc5cc43)ccc2c1 (stereo not drawn) [Compound E],A (50% by mass or more of an aromatic ring-containing compound were dissolved in PGMEA)
17,C=CC(=O)OCCOc1ccc(C2(c3ccc4sc(-c5ccccc5)nc4c3)c3ccccc3-c3cc(OCCOC(=O)C=C)ccc32)cc1 (stereo not drawn) [Compound F],B (30% by mass or more and less than 50% by mass of an aromatic ring-containing compound were dissolved in PGMEA)
18,C=CC(=O)OCCOc1ccc(C2(c3ccc(OCCOC(=O)C=C)cc3)c3ccccc3-c3cc4sc(-c5ccccc5)nc4cc32)cc1 [Compound G],B (30% by mass or more and less than 50% by mass of an aromatic ring-containing compound were dissolved in PGMEA)
19,C=CC(=O)OCCOc1ccc(-c2nc3cc(C4(c5ccc6oc(-c7ccc(OCCOC(=O)C=C)cc7)nc6c5)c5ccccc5-c5cc6ccccc6cc54)ccc3o2)cc1 [Compound H],B (30% by mass or more and less than 50% by mass of an aromatic ring-containing compound were dissolved in PGMEA)
20,C=CC(=O)OCCOc1ccc2nc(C3(c4nc5ccc(OCCOC(=O)C=C)cc5s4)c4ccccc4-c4ccccc43)sc2c1 [Compound I],A (50% by mass or more of an aromatic ring-containing compound were dissolved in PGMEA)
21,C=CC(=O)OCCOc1ccc(C2(c3ccc4sc(-c5ccc6cc(OCCOC(=O)C=C)ccc6c5)nc4c3)c3ccccc3-c3cc4ccccc4cc32)cc1 (stereo not drawn) [Compound J],A (50% by mass or more of an aromatic ring-containing compound were dissolved in PGMEA)
